What was measured:
SARS-CoV-2 [1] = assay: microbe, parasite or virus in culture; format: functional, organism-based, Chlorocebus sabaeus, Vero C1008; settings: Severe acute respiratory syndrome coronavirus 2, Vero C1008, 48 h
in vitro = settings: chlorocebus sabaeus, Vero E6 (Vero C1008) cells
SARS-CoV-2 [2] = assay: microbe, parasite or virus in culture; settings: Severe acute respiratory syndrome coronavirus 2, Vero C1008, 48 h

| SMILES | IC50 (SARS-CoV-2 [1]; read-out: IC50) | IC50 (SARS-CoV-2 [1]; read-out: pIC50 (converted)) | CC50 at 48 h (in vitro; CC50) | CC50 at 48 h (in vitro; pCC50) | IC50 (SARS-CoV-2 [2]) | IC50 (SARS-CoV-2 [2]; read-out: pIC50 (converted)) |
| --- | --- | --- | --- | --- | --- | --- |
| CN(C)C(=O)c1cc2cnc(Nc3ccc(N4CCNCC4)cn3)nc2n1C1CCCC1 [RIBOCICLIB] | > 100 µM | > 100 µM | 38.9 µM | 38.9 µM | > 100 µM | > 100 µM |
| Clc1ccc(C(c2ccccc2)N2CCN(C/C=C/c3ccccc3)CC2)cc1 (stereo not drawn) [CLOCINIZINE] | 20.9 µM | 20.9 µM | 21.9 µM | 21.9 µM | > 100 µM | > 100 µM |
| O=C1CC2(CCCC2)CC(=O)N1CCCCN1CCN(c2nsc3ccccc23)CC1 [TIOSPIRONE] | > 100 µM | > 100 µM | 24.6 µM | 24.5 µM | > 100 µM | > 100 µM |
| Cc1ccc(C(=O)N(CCCN)[C@@H](c2oc3cc(Cl)ccc3c(=O)c2Cc2ccccc2)C(C)C)cc1 [SB-743921] | > 50.1 µM | > 50.1 µM | 2.63 µM | 2.63 µM | > 50.1 µM | > 50.1 µM |
| Clc1ccc(-c2nn(Cc3ccccc3)c3c2CCNCC3)cc1 [JNJ-18038683 FREE BASE] | > 25.1 µM | > 25.1 µM | 14.6 µM | 14.5 µM | > 25.1 µM | > 25.1 µM |
| C=CC(=O)Nc1cc(Nc2nccc(-c3cn(C)c4ccccc34)n2)c(OC)cc1N(C)CCN(C)C [OSIMERTINIB] | > 100 µM | > 100 µM | 3.09 µM | 3.09 µM | > 100 µM | > 100 µM |
| CCCCN(CCCC)CCCOc1ccc(C(=O)c2c(CC)cc3ccccn23)cc1 [BUTOPROZINE] | > 100 µM | > 100 µM | 6.61 µM | 6.61 µM | > 100 µM | > 100 µM |
| CC(C)N1CCN(c2ccc(OCC3COC(Cn4cncn4)(c4ccc(Cl)cc4Cl)O3)cc2)CC1 (stereo not drawn) [TERCONAZOLE] | > 12.6 µM | > 12.6 µM | ~10 µM | ~10 µM | 16.6 µM | 16.6 µM |
| CN1CCC[C@@H](CN2c3ccccc3Sc3ccccc32)C1 | > 100 µM | > 100 µM | 11.8 µM | 11.7 µM | > 20 µM | > 20 µM |
| CN1CCN(CC/C=C2/c3ccccc3Sc3ccc(S(=O)(=O)N(C)C)cc32)CC1 [THIOTHIXENE] | 5.75 µM | 5.75 µM | 4.96 µM | 4.9 µM | > 100 µM | > 100 µM |
| Nc1nc(Nc2ccc3c(c2)CC[C@@H](N2CCCC2)CC3)nn1-c1cc2c(nn1)-c1ccccc1CCC2 [BEMCENTINIB] | > 50.1 µM | > 50.1 µM | 1.55 µM | 1.55 µM | 1.78 µM | 1.78 µM |
| c1ccc(C(c2ccccc2)N2CCN(CCCC3(c4ccccc4)OCCO3)CC2)cc1 [DOTARIZINE] | 10 µM | 10 µM | 17.4 µM | 17.4 µM | > 20 µM | > 20 µM |
| Cc1cc(O[C@@H](CCC(F)(F)F)c2ccc(C(=O)NCCC(=O)O)cc2)cc(C)c1-c1ccc(C(C)(C)C)cc1 [ADOMEGLIVANT] | > 6.31 µM | > 6.31 µM | ~10.4 µM | ~10.2 µM | > 10 µM | > 10 µM |
| CN1CCCC(n2nc(Cc3ccc(Cl)cc3)c3ccccc3c2=O)CC1 (stereo not drawn) [AZELASTINE] | > 100 µM | > 100 µM | 17.8 µM | 17.8 µM | 13.3 µM | 13.2 µM |
| CCOC(=O)Nc1ccc(NCc2ccc(F)cc2)nc1N [FLUPIRTINE] | > 100 µM | > 100 µM | > 100 µM | > 100 µM | > 100 µM | > 100 µM |
| CC(CN(C)C)CN1c2ccccc2Sc2ccccc21 (stereo not drawn) | > 25.1 µM | > 25.1 µM | 21.4 µM | 21.4 µM | 17.4 µM | 17.4 µM |
| CC[C@@H]([C@H](C)O)n1ncn(-c2ccc(N3CCN(c4ccc(OC[C@@H]5CO[C@@](Cn6cncn6)(c6ccc(F)cc6F)C5)cc4)CC3)cc2)c1=O [POSACONAZOLE] | > 100 µM | > 100 µM | > 100 µM | > 100 µM | > 100 µM | > 100 µM |
| CC(C)(C)NC(=O)[C@@H]1C[C@@H]2CCCC[C@@H]2CN1C[C@@H](O)[C@H](Cc1ccccc1)NC(=O)[C@H](CC(N)=O)NC(=O)c1ccc2ccccc2n1 | > 100 µM | > 100 µM | 18.2 µM | 18.2 µM | > 100 µM | > 100 µM |
